{
  "source": "patent US20240131199A1",
  "about": "“PH RESPONSIVE CYANINE DYES AND CONJUGATES THEREOF” (BRACCO IMAGING S.P.A., priority 2020, published 2024)",
  "key": {"[1]": {"settings": "literature value; cited from earlier work"}, "[2]": {"test": "pKa of prior-art pH sensitive cyanine dyes (literature)", "type": "physicochemical", "settings": "worked out from literature pKa"}, "[3]": {"test": "pK assessment from absorbance/emission versus pH in phosphate buffers", "type": "physicochemical", "settings": "for pKa: phosphate buffers at different pH, inflection point of absorbance vs pH, phosphate buffers, read-out: pKa (by abs)", "description": "From the analysis of the variation of the absorbance and emission with respect to the variation of pH, it was possible to calculate the pKa of the dyes of the invention as the inflection point of the interpolated curve.\nAll the pH buffers used for the experiment were phosphate based buffers and each pH point has been accurately checked with pH-meter. First the cyanine powder was dissolved in water at ca. 1 mg/mL concentration and then 10 μL of this mother solution were added to 1 ml of phosphate buffers at different pH, previously prepared mixing ortophosphoric acid and sodium hydroxide in the right amount to reach the desired pH. The diluted cyanine buffered solutions were then sampled and transferred into a 96 wells plate (clear for the absorbance measurements and dark for the emission measurements) for the analyses. By plotting for each solution the value of the absorbance at the maximum of the active form, for instance 780 nm for Compound 5, vs. the pH of the solution, a polynomial cubic curve was obtained, whose flex corresponds to the pKa value of the cyanine."}, "[4]": {"test": "Residual fluorescence at different pH relative to pH 3", "type": "physicochemical", "settings": "unit assumed; for Em. at pH 5/Em at pH 3: fluorescence at pH 5 relative to maximum at pH 3; for Em. at pH 6/Em at pH 3: fluorescence at pH 6 relative to maximum at pH 3; for Em. at pH 7.5/Em at pH 3: fluorescence at pH 7.5 relative to maximum at pH 3", "description": "The ratio of the fluorescence at different pH (5, 6 and 7.5) with respect to the maximum fluorescence collected at pH 3 (highly acidic) was calculated for several representative compounds of the invention and the results are reported in the following Table V. The results were also compared to the values calculated for the non-alkylated Reference Compound A."}, "[5]": {"test": "Optical characterization (absorbance, excitation and emission spectra, microplate reader)", "type": "physicochemical", "settings": "phosphate buffer; for Abs. Max. / Em. Max.: maximum of the active form", "description": "All commercially available reagents used in the synthesis were obtained from Sigma Aldrich and TCI and they were used without further purification. c(RGDfK) was purchased from Apex Bio or Bachem. All the reactions were followed by HPLC (Agilent mod. 1100/1200) and HPLC-MS (Agilent mod. 1260, Quadrupole LC/MSD Mod. 6120) equipped with an absorption detector set at different wavelengths (Column: YMC-Triart Phenyl, 250×4.6 mm/S-5 μm/12 nm). Purifications were performed by flash chromatography on an automated purification system (CombiFlash® Rf+), using pre-packed silica C18 cartridges (Biotage® or Phenomenex) or by preparative HPLC on preparative YMC-Triart Phenyl column. Absorbance, excitation and emission values were assessed in a well plate reader to speed-up the measurements (SPARK).\nOptical characterization was performed for each compound with Spark® multimode microplate reader, registering with specific 96-wells plate the absorbance, excitation and emission spectra of the fluorophore buffered in phosphate buffer at several pH, ranging from 3 to 8.\nIn particular, the absorbance, excitation and emission maxima of representative compounds of formula (I) and conjugates of formula (II) are shown in Table III."}},
  "note": "Read-outs that look alike come from different tables or passages of the source.",
  "data": [
    {"smiles": "CC1(C)C(/C=C/C2=C(c3ccc(C(=O)O)cc3)C(=C/C=C3/Nc4ccc(S(=O)(=O)O)cc4C3(C)C)/CCC2)=Nc2ccc(S(=O)(=O)O)cc21", "note": "[B]", "values": [
      {"measurement": "pKa", "setting": "[1]", "result": 5.2},
      {"measurement": "pH at which 95% protonation is achieved", "setting": "[2]", "result": 4.2}
    ]},
    {"smiles": "CC(CC[N+]1=C(/C=C/C2=C(Cl)C(=C/C=C3/Nc4ccc(S(=O)(=O)O)cc4C3(C)C)/CCC2)C(C)(C)c2cc(C(=O)O)ccc21)S(=O)(=O)[O-]", "note": "(centres unmarked) [Compound 1]", "values": [
      {"measurement": "pKa", "setting": "[3]", "result": 6},
      {"measurement": "Em. at pH 5/Em at pH 3", "setting": "[4]", "result": 104, "unit": "%"},
      {"measurement": "Em. at pH 6/Em at pH 3", "setting": "[4]", "result": 55, "unit": "%"},
      {"measurement": "Em. at pH 7.5/Em at pH 3", "setting": "[4]", "result": 9, "unit": "%"},
      {"measurement": "Exc. Max.", "setting": "[5]", "result": 783, "unit": "nm"},
      {"measurement": "Abs. Max.", "setting": "[5]", "result": 784, "unit": "nm"},
      {"measurement": "Em. Max.", "setting": "[5]", "result": 804, "unit": "nm"}
    ]},
    {"smiles": "CC(CC[N+]1=C(/C=C/C2=C(Cl)C(=C/C=C3/Nc4ccc(S(=O)(=O)O)cc4C3(C)C)/CCC2)C(C)(C)c2cc(C(=O)NCC(O)C(O)C(O)C(O)CO)ccc21)S(=O)(=O)[O-]", "note": "(centres unmarked) [Compound 3]", "values": [
      {"measurement": "Exc. Max.", "setting": "[5]", "result": 780, "unit": "nm"},
      {"measurement": "Abs. Max.", "setting": "[5]", "result": 782, "unit": "nm"},
      {"measurement": "Em. Max.", "setting": "[5]", "result": 807, "unit": "nm"}
    ]},
    {"smiles": "CC1(C)C(/C=C/C2=C(c3ccc(C(=O)NCCS(=O)(=O)O)cc3)C(=C/C=C3/Nc4ccc(S(=O)(=O)O)cc4C3(C)C)/CCC2)=[N+](CCCCCC(=O)O)c2ccc(S(=O)(=O)[O-])cc21", "note": "[Compound 4]", "values": [
      {"measurement": "pKa", "setting": "[3]", "result": 6.4}
    ]},
    {"smiles": "CC1(C)C(/C=C/C2=C(Cl)C(=C/C=C3/Nc4ccc(S(=O)(=O)O)cc4C3(C)C)/CCC2)=[N+](CCCCCC(=O)O)c2ccc(S(=O)(=O)[O-])cc21", "note": "[Compound 5]", "values": [
      {"measurement": "pKa (from emission vs pH)", "setting": "[3]; emission at 804 nm vs pH, second source of data", "result": "same value of pKa"},
      {"measurement": "pKa", "setting": "[3]", "result": 5.9}
    ]},
    {"smiles": "CC1(C)C(/C=C/C2=C(Cl)C(=C/C=C3/Nc4ccc(S(=O)(=O)[O-])cc4C3(C)C)/CCC2)=[N+](CCCCCC(=O)O)c2ccc(C(=O)NCC(O)C(O)C(O)C(O)CO)cc21", "note": "(centres unmarked) [Compound 6]", "values": [
      {"measurement": "pKa", "setting": "[3]", "result": 6}
    ]},
    {"smiles": "CC1(C)C(/C=C/C2=C(Cl)C(=C/C=C3/N(CCCCCC(=O)O)c4ccc(C(=O)NCC(O)C(O)C(O)C(O)CO)cc4C3(C)C)/CCC2)=Nc2ccc(C(=O)NCC(O)C(O)C(O)C(O)CO)cc21", "note": "(centres unmarked) [Compound 7]", "values": [
      {"measurement": "pKa", "setting": "[3]", "result": 6.1}
    ]},
    {"smiles": "CC1(C)C(/C=C/C=C/C=C/C=C2/Nc3ccc(S(=O)(=O)O)cc3C2(C)C)=[N+](CCCCCC(=O)O)c2ccc(S(=O)(=O)O)cc21", "note": "[Compound 8]", "values": [
      {"measurement": "pKa", "setting": "[3]", "result": 6},
      {"measurement": "Em. at pH 5/Em at pH 3", "setting": "[4]", "result": 96, "unit": "%"},
      {"measurement": "Em. at pH 6/Em at pH 3", "setting": "[4]", "result": 66, "unit": "%"},
      {"measurement": "Em. at pH 7.5/Em at pH 3", "setting": "[4]", "result": 10, "unit": "%"},
      {"measurement": "Exc. Max.", "setting": "[5]", "result": 740, "unit": "nm"},
      {"measurement": "Abs. Max.", "setting": "[5]", "result": 742, "unit": "nm"},
      {"measurement": "Em. Max.", "setting": "[5]", "result": 777, "unit": "nm"}
    ]},
    {"smiles": "CC1(C)C(/C=C/C(Cl)=C/C=C2/N(CCCCCC(=O)O)c3ccc4c(S(=O)(=O)O)cc(S(=O)(=O)O)cc4c3C2(C)C)=Nc2ccc3c(S(=O)(=O)O)cc(S(=O)(=O)O)cc3c21", "note": "[Compound 9]", "values": [
      {"measurement": "pKa", "setting": "[3]", "result": 6.7}
    ]},
    {"smiles": "CC1(C)C(/C=C/C2=C(Cl)C(=C/C=C3/Nc4ccc(S(=O)(=O)O)cc4C3(C)C)/CCC2)=[N+](CCCCCC(=O)NCCCCC2NC(=O)[C@@H](Cc3ccccc3)NC(=O)[C@H](CC(=O)O)NC(=O)CNC(=O)[C@H](CCCNC(=N)N)NC2=O)c2ccc(S(=O)(=O)[O-])cc21", "note": "(some centres unmarked) [Compound 10]", "values": [
      {"measurement": "pKa", "setting": "[3]", "result": 5.8}
    ]},
    {"smiles": "CC1(C)C(/C=C/C2=C(Cl)C(=C/C=C3/Nc4ccc(S(=O)(=O)O)cc4C3(C)C)/CCC2)=[N+](CCCCCC(=O)NCCCCC2NC(=O)[C@@H](Cc3ccccc3)NC(=O)[C@H](CC(=O)O)NC(=O)CNC(=O)[C@H](CCCNC(=N)N)NC2=O)c2ccc(C(=O)NCC(O)C(O)C(O)C(O)CO)cc21", "note": "(some centres unmarked) [Compound 11]", "values": [
      {"measurement": "pKa", "setting": "[3]", "result": 6.3}
    ]},
    {"smiles": "CC1(C)C(/C=C/C2=C(Cl)C(=C/C=C3/Nc4ccc(C(=O)NCC(O)C(O)C(O)C(O)CO)cc4C3(C)C)/CCC2)=[N+](CCCCCC(=O)NCCCCC2NC(=O)[C@@H](Cc3ccccc3)NC(=O)[C@H](CC(=O)O)NC(=O)CNC(=O)[C@H](CCCNC(=N)N)NC2=O)c2ccc(C(=O)NCC(O)C(O)C(O)C(O)CO)cc21", "note": "(some centres unmarked) [Compound 12]", "values": [
      {"measurement": "Exc. Max.", "setting": "[5]", "result": 790, "unit": "nm"},
      {"measurement": "Abs. Max.", "setting": "[5]", "result": 793, "unit": "nm"},
      {"measurement": "Em. Max.", "setting": "[5]", "result": 814, "unit": "nm"}
    ]},
    {"smiles": "CC1(C)C(/C=C/C=C/C=C2/Nc3ccc(S(=O)(=O)O)cc3C2(C)CCCCCC(=O)O)=[N+](CCCCS(=O)(=O)O)c2ccc(S(=O)(=O)O)cc21", "note": "(centres unmarked) [CypHer5E]", "values": [
      {"measurement": "pKa", "setting": "[1]", "result": "~7.3"}
    ]},
    {"smiles": "CC1(C)C(/C=C/C2=C(Cl)C(=C/C=C3/Nc4ccc(S(=O)(=O)O)cc4C3(C)C)/CCC2)=Nc2ccc(S(=O)(=O)O)cc21", "note": "[Reference Compound A, reference compound]", "values": [
      {"measurement": "pKa", "setting": "[3]", "result": 4.6},
      {"measurement": "Em. at pH 5/Em at pH 3", "setting": "[4]", "result": 40, "unit": "%"},
      {"measurement": "Em. at pH 6/Em at pH 3", "setting": "[4]", "result": 10, "unit": "%"},
      {"measurement": "Em. at pH 7.5/Em at pH 3", "setting": "[4]", "result": 1, "unit": "%"},
      {"measurement": "pKa", "setting": "[1]", "result": 4.7},
      {"measurement": "pH at which 95% protonation is achieved", "setting": "[2]", "result": 3.7}
    ]},
    {"smiles": "CC[N+]1=C(/C=C/C=C/C=C2/Nc3ccc(CC(=O)O)cc3C2(C)C)C(C)(C)c2cc(S(=O)(=O)[O-])ccc21", "note": "[pentamethine cyanine dye]", "values": [
      {"measurement": "pKa", "setting": "[1]", "result": 7.5}
    ]}
  ]
}
